Measured values published in PubChem BioAssay (NCI).
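Tested at 5 concentrations; 48 h exposure; 96-well plates; endpoints linearly interpolated, else capped at highest concentration. GI50 marks 50% less growth. TGI denotes the concentration required for complete inhibition of growth.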

Assays:
Test in all cases: growth of human tumour cells (NCI), 48 h
SF-268 CNS = tested on: SF-268 CNS
EKVX NSCLC = tested on: EKVX NSCLC
IGROV1 ovarian = tested on: IGROV1 ovarian
SR leukemia = tested on: SR leukemia
SF-539 CNS = tested on: SF-539 CNS
MCF7 breast = tested on: MCF7 breast
UACC-257 melanoma = tested on: UACC-257 melanoma
MDA-MB-435 = tested on: MDA-MB-435
SK-OV-3 ovarian = tested on: SK-OV-3 ovarian
MOLT-4 leukemia = tested on: MOLT-4 leukemia
KM12 colon = tested on: KM12 colon
RPMI-8226 leukemia = tested on: RPMI-8226 leukemia
ACHN renal = tested on: ACHN renal
SK-MEL-2 melanoma = tested on: SK-MEL-2 melanoma
U251 CNS = tested on: U251 CNS
HCT-15 colon = tested on: HCT-15 colon
HCT-116 colon = tested on: HCT-116 colon
NCI-H522 lung = tested on: NCI-H522 lung
NCI-H460 lung = tested on: NCI-H460 lung
TK-10 renal = tested on: TK-10 renal
K-562 leukemia = tested on: K-562 leukemia
HOP-62 NSCLC = tested on: HOP-62 NSCLC
HL-60(TB) leukemia = tested on: HL-60(TB) leukemia
SNB-75 CNS = tested on: SNB-75 CNS
DU-145 prostate = tested on: DU-145 prostate
SK-MEL-28 melanoma = tested on: SK-MEL-28 melanoma
MDA-MB-231 breast = tested on: MDA-MB-231 breast
HOP-92 NSCLC = tested on: HOP-92 NSCLC
CAKI-1 renal = tested on: CAKI-1 renal
M14 melanoma = tested on: M14 melanoma
HT29 colon = tested on: HT29 colon
786-0 renal = tested on: 786-0 renal
OVCAR-8 ovarian = tested on: OVCAR-8 ovarian
UACC-62 melanoma = tested on: UACC-62 melanoma
SK-MEL-5 melanoma = tested on: SK-MEL-5 melanoma
OVCAR-5 ovarian = tested on: OVCAR-5 ovarian
A549 NSCLC = tested on: A549 NSCLC
COLO 205 colon = tested on: COLO 205 colon
OVCAR-3 ovarian = tested on: OVCAR-3 ovarian
SNB-19 CNS = tested on: SNB-19 CNS
A498 renal = tested on: A498 renal
HCC-2998 colon = tested on: HCC-2998 colon
BT-549 breast = tested on: BT-549 breast
SW-620 colon = tested on: SW-620 colon
MALME-3M melanoma = tested on: MALME-3M melanoma
NCI-H23 lung = tested on: NCI-H23 lung
OVCAR-4 ovarian = tested on: OVCAR-4 ovarian
CCRF-CEM leukemia = tested on: CCRF-CEM leukemia
LOX IMVI melanoma = tested on: LOX IMVI melanoma
NCI-H226 lung = tested on: NCI-H226 lung
T-47D breast = tested on: T-47D breast
SF-295 CNS = tested on: SF-295 CNS
PC-3 prostate = tested on: PC-3 prostate
UO-31 renal = tested on: UO-31 renal
RXF 393 renal = tested on: RXF 393 renal
NCI/ADR-RES ovarian = tested on: NCI/ADR-RES ovarian
SN12C renal = tested on: SN12C renal

COc1ccc([C@@H]2C(=O)N(c3cc(OC)c(OC)c(OC)c3)[C@H]2c2ccc(OC)c(O)c2)cc1
GI50 (SF-268 CNS): 300 nM
TGI (SF-268 CNS): > 100000 nM
GI50 (EKVX NSCLC): 49.8 nM
TGI (EKVX NSCLC): > 100000 nM
GI50 (IGROV1 ovarian): 63 nM
TGI (IGROV1 ovarian): > 100000 nM
GI50 (SR leukemia): 31.6 nM
TGI (SR leukemia): 25700 nM
GI50 (SF-539 CNS): 22.1 nM
TGI (SF-539 CNS): 56.7 nM
GI50 (MCF7 breast): 38.1 nM
TGI (MCF7 breast): > 100000 nM
GI50 (UACC-257 melanoma): 13000 nM
TGI (UACC-257 melanoma): > 100000 nM
GI50 (MDA-MB-435): 30.1 nM
TGI (MDA-MB-435): > 100000 nM
GI50 (SK-OV-3 ovarian): 32.5 nM
TGI (SK-OV-3 ovarian): 65200 nM
GI50 (MOLT-4 leukemia): 38.2 nM
TGI (MOLT-4 leukemia): 31600 nM
GI50 (KM12 colon): 45.9 nM
TGI (KM12 colon): > 100000 nM
GI50 (RPMI-8226 leukemia): 49.2 nM
TGI (RPMI-8226 leukemia): 12000 nM
GI50 (ACHN renal): 84.7 nM
TGI (ACHN renal): 32400 nM
GI50 (SK-MEL-2 melanoma): 48.3 nM
TGI (SK-MEL-2 melanoma): > 100000 nM
GI50 (U251 CNS): 34 nM
TGI (U251 CNS): > 100000 nM
GI50 (HCT-15 colon): 34.8 nM
TGI (HCT-15 colon): > 100000 nM
GI50 (HCT-116 colon): 35.3 nM
TGI (HCT-116 colon): > 100000 nM
GI50 (NCI-H522 lung): 20.9 nM
TGI (NCI-H522 lung): 58 nM
GI50 (NCI-H460 lung): 36 nM
TGI (NCI-H460 lung): > 100000 nM
GI50 (TK-10 renal): 15100 nM
TGI (TK-10 renal): > 100000 nM
GI50 (K-562 leukemia): 30.6 nM
TGI (K-562 leukemia): 30500 nM
GI50 (HOP-62 NSCLC): 41.1 nM
TGI (HOP-62 NSCLC): > 100000 nM
GI50 (HL-60(TB) leukemia): 21.4 nM
TGI (HL-60(TB) leukemia): 52.7 nM
GI50 (SNB-75 CNS): 44.4 nM
TGI (SNB-75 CNS): 51700 nM
GI50 (DU-145 prostate): 59.6 nM
TGI (DU-145 prostate): > 100000 nM
GI50 (SK-MEL-28 melanoma): 13400 nM
TGI (SK-MEL-28 melanoma): > 100000 nM
GI50 (MDA-MB-231 breast): 36.7 nM
TGI (MDA-MB-231 breast): > 100000 nM
GI50 (HOP-92 NSCLC): 6020 nM
TGI (HOP-92 NSCLC): 48800 nM
GI50 (CAKI-1 renal): 68.1 nM
TGI (CAKI-1 renal): > 100000 nM
GI50 (M14 melanoma): 69.6 nM
TGI (M14 melanoma): 48100 nM
GI50 (HT29 colon): 43.1 nM
TGI (HT29 colon): 11500 nM
GI50 (786-0 renal): 76.2 nM
TGI (786-0 renal): > 100000 nM
GI50 (OVCAR-8 ovarian): 33.2 nM
TGI (OVCAR-8 ovarian): 27800 nM
GI50 (UACC-62 melanoma): 82.5 nM
TGI (UACC-62 melanoma): 42300 nM
GI50 (SK-MEL-5 melanoma): 35.4 nM
TGI (SK-MEL-5 melanoma): 161 nM
GI50 (OVCAR-5 ovarian): 49.8 nM
TGI (OVCAR-5 ovarian): > 100000 nM
GI50 (A549 NSCLC): 43.8 nM
TGI (A549 NSCLC): > 100000 nM
GI50 (COLO 205 colon): 54.6 nM
TGI (COLO 205 colon): 205 nM
GI50 (OVCAR-3 ovarian): 40.8 nM
TGI (OVCAR-3 ovarian): 28900 nM
GI50 (SNB-19 CNS): 284 nM
TGI (SNB-19 CNS): > 100000 nM
GI50 (A498 renal): 8560 nM
TGI (A498 renal): > 100000 nM
GI50 (HCC-2998 colon): 259 nM
TGI (HCC-2998 colon): 18500 nM
GI50 (BT-549 breast): 55.5 nM
TGI (BT-549 breast): 3200 nM
GI50 (SW-620 colon): 42.8 nM
TGI (SW-620 colon): > 100000 nM
GI50 (MALME-3M melanoma): 61 nM
TGI (MALME-3M melanoma): 40800 nM
GI50 (NCI-H23 lung): 47 nM
TGI (NCI-H23 lung): 44100 nM
GI50 (OVCAR-4 ovarian): 3980 nM
TGI (OVCAR-4 ovarian): > 100000 nM
GI50 (CCRF-CEM leukemia): 35.6 nM
TGI (CCRF-CEM leukemia): > 100000 nM
GI50 (LOX IMVI melanoma): 37.6 nM
TGI (LOX IMVI melanoma): > 100000 nM
GI50 (NCI-H226 lung): 36.2 nM
TGI (NCI-H226 lung): 37200 nM
GI50 (T-47D breast): 24300 nM
TGI (T-47D breast): > 100000 nM
GI50 (SF-295 CNS): 32.4 nM
TGI (SF-295 CNS): 18900 nM
GI50 (PC-3 prostate): 200 nM
TGI (PC-3 prostate): > 100000 nM
GI50 (UO-31 renal): 134 nM
TGI (UO-31 renal): 23700 nM
GI50 (RXF 393 renal): 41.7 nM
TGI (RXF 393 renal): 51100 nM
GI50 (NCI/ADR-RES ovarian): 24 nM
TGI (NCI/ADR-RES ovarian): 59.8 nM
GI50 (SN12C renal): 41.3 nM
TGI (SN12C renal): > 100000 nM
